Assay results published in US20180303772A1, “5-HYDROXYTRYPTAMINE 1B RECEPTOR-STIMULATING AGENT FOR THE TREATMENT OF MYOCARDIAL INFARCTION” (INSTITUT PASTEUR, priority 2015, published 2018).
Where a name gives a salt, the structure may show the parent alone.

How the values were obtained:
5-HT1BR = 5-HT1BR (Mus musculus, UniProt P28334)
Experimental: Counting was done based on the endogenous fluorescence. […] (d) Number of vessels (counted with endogenous GFP from Flk1^GFP/+ mouse) in fluoxetine, fluoxetine and 5HT1B inhibitor, inhibitor alone per mm^2 in the heart.
Statistical analysis was performed using GraphPad Prism software using appropriate tests (non-parametric Mann-Whitney unless specified) and a minimum of 95% confidence interval for significance; p values indicated on figures are <0.05 (*), <0.01 (**), and <0.001 (***). Figures display average values of all animals tested ±SD

Flk1^GFP/+ mice = assay: Vessel number in the heart of Flk1GFP/+ mice after 6 weeks of fluoxetine; type: in vivo; conditions: fluoxetine 18 mg/Kg
Text: Counting was done based on the endogenous fluorescence. (b-c) Cryo-sections of the heart of Flk1^GFP/+ mice treated with placebo (b) or fluoxetine (c). Endogenous GFP levels are shown. (d) Number of vessels (counted with endogenous GFP from Flk1^GFP/+ mouse) in fluoxetine, fluoxetine and 5HT1B inhibitor, inhibitor alone per mm^2 in the heart. (e-f) Haematoxylin and eosin staining of heart of the placebo and the fluoxetine treated mice. (g) Quantification of the infarcted area with or without fluoxetine treatment.
(§1) Hearts were carefully dissected and snap frozen in liquid-nitrogen-cooled OCT for a few minutes and stored at −80° C. prior to cryosectioning (10 μm sections). Sections were kept at room temperature overnight before staining. Sections were then rehydrated in PBS for 10 minutes and fixed in 10% formalin for 3 minutes. The sections were then routinely stained with haematoxylin and eosin (HE) using an automated stain machine or manually with red sirius.
Statistical analysis was performed using GraphPad Prism software using appropriate tests (non-parametric Mann-Whitney unless specified) and a minimum of 95% confidence interval for significance; p values indicated on figures are <0.05 (*), <0.01 (**), and <0.001 (***). Figures display average values of all animals tested ±SD […]

C57Bl/6 mice = assay: Ischemia reperfusion (myocardial infarct), infarcted area by histology; type: in vivo; conditions: C57Bl/6 mice treated with fluoxetine for 6 weeks
Experimental: (e-f) Haematoxylin and eosin staining of heart of the placebo and the fluoxetine treated mice. (g) Quantification of the infarcted area with or without fluoxetine treatment.
Animals were anesthetized with ketamine (Imalgene1000 100 mg/Kg Merial) and Xylazine (Rompun2% 20 mg/Kg Bayer) prior to injury. Animals were hydrated and treated with analgesic (Buprenorphin Axience 0.3 mg/kg) twice a day for 4 days following injury.
as §1
For image analysis (fibrosis quantification) ImageJ 1.46r software was using between different photos randomly taken per section and 3 sections minimum per experimental group. The pictures were converted in a binary image and the pixel values then collected.
Statistical analysis was performed using GraphPad Prism software using appropriate tests (non-parametric Mann-Whitney unless specified) and a minimum of 95% confidence interval for significance; p values indicated on figures are <0.05 (*), <0.01 (**), and <0.001 (***). […]

Chain of 5-HT1BR (P28334 whole entry): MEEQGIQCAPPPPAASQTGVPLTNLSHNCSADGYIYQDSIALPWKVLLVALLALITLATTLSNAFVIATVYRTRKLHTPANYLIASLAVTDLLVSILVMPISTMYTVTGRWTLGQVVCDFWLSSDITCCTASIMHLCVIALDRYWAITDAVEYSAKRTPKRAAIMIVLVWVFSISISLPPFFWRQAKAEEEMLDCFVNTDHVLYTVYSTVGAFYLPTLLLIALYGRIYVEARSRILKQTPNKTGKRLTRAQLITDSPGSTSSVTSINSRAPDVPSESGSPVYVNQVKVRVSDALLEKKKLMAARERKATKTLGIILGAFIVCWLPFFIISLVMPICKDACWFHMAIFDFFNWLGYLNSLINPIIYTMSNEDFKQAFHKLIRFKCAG

Compound | effect of 5-HT1BR inhibition on the fluoxetine-induced increase in vessel number in the heart (5-HT1BR; GR127935 hydrochloride in osmotic pump together with fluoxetine treatment) | vessel number in the heart (Flk1^GFP/+ mice; 6 weeks IP, placebo 932.9±186, p=0.017) [vessels] | vessel number in the heart (Flk1^GFP/+ mice; 6 weeks PO, placebo 932.9±186, p=0.03) [vessels] | infarcted area at the histological level (C57Bl/6 mice; 3 days after infarct, placebo 53126±11849, p=0.02) [pixels] | infarcted area, first observation after ischemia reperfusion (C57Bl/6 mice; control 5%) | vessel number in the heart (5-HT1BR; fluoxetine and PBS treated mice) [vessels per mm^2]
COc1ccc(NC(=O)c2ccc(-c3ccc(-c4noc(C)n4)cc3C)cc2)cc1N1CCN(C)CC1 [GR127935 hydrochloride] | no increase in the vessel number in the heart was observed |  |  |  |  | 
CNCCC(Oc1ccc(C(F)(F)F)cc1)c1ccccc1 (stereo not drawn) [fluoxetine] |  | 1634±608 | 1474±375 | 36690±7884 | 25 % of total area | 1697±702
